Reference: ChEMBL document CHEMBL1130332, “Synthesis of (+)- and ()-2-methylarachidonyl-2-fluoroethylamide (O-689)” (Bioorg Med Chem Lett, 1997)
“And” between values parts separate entries of the source, which are not always exact repeats. Equal values may be shown once.

Legend:
Cannabinoid receptor 1 [1] = target: T1, Cannabinoid receptor 1 (Rattus norvegicus, UniProt P20272); experiment: Compound was evaluated for binding affinity towards cannabinoid receptor in rat brain P2 membrane; type: cell membranes
Mus musculus [2] = experiment: Tested for hypothermia in mouse upon intravenous administration; type: functional
Mus musculus [3] = experiment: Tested for ring immobility in mouse upon intravenous administration; type: functional
Cannabinoid receptor 1 [4] = target: T1, Cannabinoid receptor 1; experiment: Compound was evaluated for binding affinity to displace [3H]CP-55940 radioligand from cannabinoid receptor in rat brain P2 membrane; type: cell membranes
Mus musculus [5] = experiment: Tested for in vivo inhibition of locomotor activity in mouse upon intravenous administration; type: functional
Mus musculus [6] = experiment: Tested for in vivo […] by tail-flick method in mouse upon intravenous administration; type: functional

T1 sequence (P20272 whole entry): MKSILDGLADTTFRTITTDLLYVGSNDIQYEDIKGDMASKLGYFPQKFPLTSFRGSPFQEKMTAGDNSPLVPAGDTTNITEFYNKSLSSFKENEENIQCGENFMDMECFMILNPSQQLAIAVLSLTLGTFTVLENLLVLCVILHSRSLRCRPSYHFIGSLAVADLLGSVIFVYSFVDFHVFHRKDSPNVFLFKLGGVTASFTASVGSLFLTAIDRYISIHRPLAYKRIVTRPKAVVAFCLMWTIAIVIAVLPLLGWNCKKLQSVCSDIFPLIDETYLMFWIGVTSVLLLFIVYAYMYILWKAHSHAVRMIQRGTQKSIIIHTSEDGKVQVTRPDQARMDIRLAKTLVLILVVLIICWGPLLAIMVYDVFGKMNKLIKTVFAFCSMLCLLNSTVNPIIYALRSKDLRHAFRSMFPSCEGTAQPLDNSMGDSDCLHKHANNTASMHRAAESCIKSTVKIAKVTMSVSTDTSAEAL

SMILES | Ki (Cannabinoid receptor 1 [1]) | ED50 (Mus musculus [2]) | ED50 (Mus musculus [3]) | Ki (Cannabinoid receptor 1 [4]) | ED50 (Mus musculus [5]) | ED50 (Mus musculus [6])
CCCCC/C=C\C/C=C\C/C=C\C/C=C\CCC(C)C(=O)NCCF (racemic) | 5.7 nM | 2.73 mg/kg | 1.6 mg/kg | 21.2 nM | 1.85 mg/kg and 4.78 mg/kg | 
CCCCC/C=C\C/C=C\C/C=C\C/C=C\CCC(C)C(=O)NCCF (single isomer, unassigned; (-)) |  | 10.1 mg/kg | 2.93 mg/kg | 15.3 nM | 2.3 mg/kg | 1.34 mg/kg
CCCCC/C=C\C/C=C\C/C=C\C/C=C\CCC(C)C(=O)NCCF (stereo in doubt; (+)-4a) |  | 2.49 mg/kg | 5.27 mg/kg | 22.4 nM | 10.2 mg/kg | 2.56 mg/kg
